Laboratory results from PubChem BioAssay AID2060496 (Molecular Pharmacology Branch, DTP, NCI, 2025).

System: 276233-004-R-J1-PDC complex spheroid viability
Experiment: Anticancer human tumor 276233-004-R-J1-PDC patient-derived colon adenocarcinoma cell line growth inhibition [GQUAD]
Settings: for IC50: curve of first compound; for viability, T/C: stronger effect = lower value
Text: DNA G-quadruplex Stabilizer Agents in Combinations in Complex Spheroids
A high-throughput screen of multi-cell type tumor spheroids was designed to identify active combinations of DNA G-quadruplex stabilizer agents and targeted small molecules. Complex spheroids include a stromal component modeled by human endothelial cells (HUVEC) and fibroblasts modeled by human mesenchymal stem cells (MSCs). The concentration ranges selected for each drug and investigational agent were based upon clinically achievable concentrations if the clinical Cmax of the agent was known.
Compounds. The drugs and investigational agents: pidnarulex (CX-5461; NSC782164), APTO-253 (NSC789042), BRACO-19 (NSC847499), peposertib (NSC802822), ceralasertib (NSC780249), elimusertib (NSC800525), camonsertib (NSC841442), AZD-1390 (NSC803789), olaparib (NSC753686), talazoparib (NSC767125), ART-558 (NSC835418), sotorasib (NSC818433), MRTX-1133 (NSC836407), SN-38 (NSC673596), topotecan (NSC609699), etoposide (NSC141540), doxorubicin (NSC123127), gemcitabine (NSC613327), 5-fluorouracil (NSC19893), paclitaxel (NSC125973), vemurafenib (NSC761431), panobinostat (NSC761190), R-306465 (JNJ-16241199; NSC773264), adavosertib (NSC754352), TP-3654 (NSC805149), carboplatin (NSC241240), KSQ-4279 (NSC840948), and staurosporine (NSC755774) were obtained from the National Cancer Institute (NCI) Developmental Therapeutics Program Chemical Repository (34). The FDA-approved anticancer drug set is available from the NCI Developmental Therapeutics Program. […] The stock solutions were prepared in dimethyl sulfoxide (DMSO, Sigma-Aldrich, St. Louis, MO, cat. D2650) at 800-fold the tested concentration and stored at -70 degrees C prior to their use. All drugs and investigational agents were tested over a range starting from a high concentration at or near the clinical Cmax and decreasing in half-log increments. If the clinical Cmax for an agent had not been determined, the highest concentration tested was 10 microM.
2.3 Cell Culture. All cells were maintained in an incubator at 37 degrees C and 5% CO2 with 95% humidity. The PDC lines were cultured according to standard operating procedures established by the NCI PDMR. All PDCs were thawed and cultured in Matrigel-coated flasks prepared with a working solution of 1X Ham's F-12 nutrient mix, without supplementation (Invitrogen, cat. 11765054), 100 U/mL penicillin-streptomycin (Invitrogen, cat. 15140122), and 2.5% Matrigel (Corning Inc., cat. 354248) for the first three passages. The 857933-349-R-J2-PDC line was cultured in 6C/Colon 1B media, which includes advanced DMEM/F-12 (Thermo Fisher Scientific, cat. 12634028), 10 mM HEPES (Thermo Fisher Scientific, cat. 15630080), 1X GlutaMAX supplement (Thermo Fisher Scientific, cat. 35050061), 0.1 mg/mL primocin (InvivoGen, cat. ant-pm-2), 10% defined fetal bovine serum, heat inactivated (HyClone Laboratories Inc., cat. SH30070.03HI), 50% L-WRN conditioned media (ATCC, cat. CRL-3276), 1.25 mM N-Acetyl-L-cysteine (Sigma-Aldrich, cat. A9165), 10 mM nicotinamide (Sigma-Aldrich, cat. N0636), 1X B-27 supplement (Thermo Fisher Scientific, cat. 17504044), 1X N-2 supplement (Thermo Fisher Scientific, cat. 17502048), 10 microM Y-27632 dihydrochloride (Tocris Bioscience, cat. 1254), and 50 ng/mL human EGF recombinant protein (Thermo Fisher Scientific, cat. PHG0311). The 485176-168-R4-J1-PDC line was cultured in Panc media, which includes all 6C/Colon 1B media components plus 100 ng/mL human FGF-10 (Thermo Fisher Scientific, cat. 100-26), 500 nM SB-431542 (Selleckchem, cat. S1067), and gastrin (Tocris, cat. 3006).
[…]

[1] = second compound 0.0316 µM, first compound 0.0316 µM
[2] = second compound 0.0316 µM, first compound 0.1 µM
[3] = second compound 0.0316 µM, first compound 0.316 µM
[4] = second compound 0.0316 µM, first compound 1 µM
[5] = second compound 0.0316 µM, first compound 3.16 µM
[6] = second compound 0.0316 µM, first compound 10 µM
[7] = second compound 0.1 µM, first compound 0.0316 µM
[8] = second compound 0.1 µM, first compound 0.1 µM
[9] = second compound 0.1 µM, first compound 0.316 µM
[10] = second compound 0.1 µM, first compound 1 µM
[11] = second compound 0.1 µM, first compound 3.16 µM
[12] = second compound 0.1 µM, first compound 10 µM
[13] = second compound 0.316 µM, first compound 0.0316 µM
[14] = second compound 0.316 µM, first compound 0.1 µM
[15] = second compound 0.316 µM, first compound 0.316 µM
[16] = second compound 0.316 µM, first compound 1 µM
[17] = second compound 0.316 µM, first compound 3.16 µM
[18] = second compound 0.316 µM, first compound 10 µM
[19] = second compound 1 µM, first compound 0.0316 µM
[20] = second compound 1 µM, first compound 0.1 µM
[21] = second compound 1 µM, first compound 0.316 µM
[22] = second compound 1 µM, first compound 1 µM
[23] = second compound 1 µM, first compound 3.16 µM
[24] = second compound 1 µM, first compound 10 µM
[25] = second compound 3.16 µM, first compound 0.0316 µM
[26] = second compound 3.16 µM, first compound 0.1 µM
[27] = second compound 3.16 µM, first compound 0.316 µM
[28] = second compound 3.16 µM, first compound 1 µM
[29] = second compound 3.16 µM, first compound 3.16 µM
[30] = second compound 3.16 µM, first compound 10 µM
[31] = second compound 10 µM, first compound 0.0316 µM
[32] = second compound 10 µM, first compound 0.1 µM
[33] = second compound 10 µM, first compound 0.316 µM
[34] = second compound 10 µM, first compound 1 µM
[35] = second compound 10 µM, first compound 3.16 µM
[36] = second compound 10 µM, first compound 10 µM
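Further: spheroids exposed to drugs for seven days.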
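Wherever viability, T/C is given: 100% = DMSO vehicle control viability.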

SMILES: CC1COCCN1c1cc(C2(S(C)(=N)=O)CC2)nc(-c2ccnc3[nH]ccc23)n1 (stereo unspecified) + CN(C)c1ccc(Nc2c3ccc(NC(=O)CCN4CCCC4)cc3nc3cc(NC(=O)CCN4CCCC4)ccc23)cc1
- IC50 (second compound 0.0316 µM): > 10 µM
- IC50 (second compound 0.1 µM): > 10 µM
- IC50 (second compound 0.316 µM): 4.01 µM
- IC50 (second compound 1 µM): 1.96 µM
- IC50 (second compound 3.16 µM): 3.16 µM
- IC50 (second compound 10 µM): < 0.0316 µM
- viability, T/C [1]: 97.8%
- viability, T/C [2]: 91%
- viability, T/C [3]: 89.8%
- viability, T/C [4]: 81.3%
- viability, T/C [5]: 66.7%
- viability, T/C [6]: 67.4%
- viability, T/C [7]: 95.1%
- viability, T/C [8]: 84.5%
- viability, T/C [9]: 75.2%
- viability, T/C [10]: 65.5%
- viability, T/C [11]: 74.6%
- viability, T/C [12]: 66.9%
- viability, T/C [13]: 74.5%
- viability, T/C [14]: 75.7%
- viability, T/C [15]: 47.8%
- viability, T/C [16]: 64%
- viability, T/C [17]: 59%
- viability, T/C [18]: 39.8%
- viability, T/C [19]: 65.8%
- viability, T/C [20]: 47.6%
- viability, T/C [21]: 59.5%
- viability, T/C [22]: 52.9%
- viability, T/C [23]: 50.1%
- viability, T/C [24]: 43.9%
- viability, T/C [25]: 58.4%
- viability, T/C [26]: 61.5%
- viability, T/C [27]: 63.1%
- viability, T/C [28]: 46.4%
- viability, T/C [29]: 52.7%
- viability, T/C [30]: 55.6%
- viability, T/C [31]: 36.8%
- viability, T/C [32]: 45.5%
- viability, T/C [33]: 33.7%
- viability, T/C [34]: 52.5%
- viability, T/C [35]: 37.2%
- viability, T/C [36]: 71.4%

SMILES: COc1ccc([C@@H](O)c2cc(-c3ncnc4cc(N5CCOCC5)ccc34)c(F)cc2Cl)nn1 + CN(C)c1ccc(Nc2c3ccc(NC(=O)CCN4CCCC4)cc3nc3cc(NC(=O)CCN4CCCC4)ccc23)cc1
- IC50 (second compound 0.0316 µM): > 10 µM
- IC50 (second compound 0.1 µM): 5.54 µM
- IC50 (second compound 0.316 µM): 0.612 µM
- IC50 (second compound 1 µM): 3.46 µM
- IC50 (second compound 3.16 µM): 0.127 µM
- IC50 (second compound 10 µM): 0.134 µM
- viability, T/C [1]: 88.8%
- viability, T/C [2]: 94.6%
- viability, T/C [3]: 87.7%
- viability, T/C [4]: 74.5%
- viability, T/C [5]: 61%
- viability, T/C [6]: 54.2%
- viability, T/C [7]: 79.4%
- viability, T/C [8]: 79.3%
- viability, T/C [9]: 76.3%
- viability, T/C [10]: 70.2%
- viability, T/C [11]: 52.9%
- viability, T/C [12]: 46.8%
- viability, T/C [13]: 78%
- viability, T/C [14]: 63.7%
- viability, T/C [15]: 52%
- viability, T/C [16]: 49.1%
- viability, T/C [17]: 43.7%
- viability, T/C [18]: 39.1%
- viability, T/C [19]: 56.5%
- viability, T/C [20]: 49.5%
- viability, T/C [21]: 62.5%
- viability, T/C [22]: 48.8%
- viability, T/C [23]: 52.4%
- viability, T/C [24]: 38.2%
- viability, T/C [25]: 47.4%
- viability, T/C [26]: 54.2%
- viability, T/C [27]: 47.6%
- viability, T/C [28]: 42.2%
- viability, T/C [29]: 39%
- viability, T/C [30]: 40.1%
- viability, T/C [31]: 48.3%
- viability, T/C [32]: 56.2%
- viability, T/C [33]: 37.6%
- viability, T/C [34]: 41.8%
- viability, T/C [35]: 46.8%
- viability, T/C [36]: 47.5%

SMILES: O=C(c1cc(Cc2n[nH]c(=O)c3ccccc23)ccc1F)N1CCN(C(=O)C2CC2)CC1 + CN(C)c1ccc(Nc2c3ccc(NC(=O)CCN4CCCC4)cc3nc3cc(NC(=O)CCN4CCCC4)ccc23)cc1
- IC50 (second compound 0.0316 µM): > 10 µM
- IC50 (second compound 0.1 µM): > 10 µM
- IC50 (second compound 0.316 µM): > 10 µM
- IC50 (second compound 1 µM): > 10 µM
- IC50 (second compound 3.16 µM): > 10 µM
- IC50 (second compound 10 µM): < 0.0316 µM
- viability, T/C [1]: 76.4%
- viability, T/C [2]: 83.4%
- viability, T/C [3]: 91.8%
- viability, T/C [4]: 125%
- viability, T/C [5]: 77.4%
- viability, T/C [6]: 82%
- viability, T/C [7]: 98.9%
- viability, T/C [8]: 100%
- viability, T/C [9]: 97.6%
- viability, T/C [10]: 84.4%
- viability, T/C [11]: 76%
- viability, T/C [12]: 88.1%
- viability, T/C [13]: 75.5%
- viability, T/C [14]: 73.8%
- viability, T/C [15]: 69.5%
- viability, T/C [16]: 65%
- viability, T/C [17]: 81.4%
- viability, T/C [18]: 68.6%
- viability, T/C [19]: 71.4%
- viability, T/C [20]: 55.4%
- viability, T/C [21]: 49.8%
- viability, T/C [22]: 52.9%
- viability, T/C [23]: 52%
- viability, T/C [24]: 55.5%
- viability, T/C [25]: 52.7%
- viability, T/C [26]: 53.4%
- viability, T/C [27]: 52.1%
- viability, T/C [28]: 55.6%
- viability, T/C [29]: 48.5%
- viability, T/C [30]: 53.1%
- viability, T/C [31]: 41.7%
- viability, T/C [32]: 63.3%
- viability, T/C [33]: 48.9%
- viability, T/C [34]: 57%
- viability, T/C [35]: 55.2%
- viability, T/C [36]: 67.3%
